Measured values reported in patent EP0326134A1, “4-Amino-2,3-disubstituted-6,7-dihydro-5H-1-pyridine derivatives, process for their preparation and medicaments containing them” (NAUCHNO-ISSLEDOVATELSKY INSTITUT TEKHNOLOGII I BEZOPASNOSTI …, priority 1988, dated 1989).
Structures can show the parent of a compound that is named as a salt. Where two headings read alike, the source gives them in different places.

Tests used:
[1] = test system: K -Durchlässigkeit der Membrane des Ranvier-Schnürringes; test: K+ permeability of the node of Ranvier membrane, voltage clamp; design: species or system Frosches; details: concentration giving 50 % block of ion permeability
Summary of the method: (§1)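 Frog sciatic nerve fibres studied at the node of Ranvier under voltage clamp, measuring membrane Na+ and K+ permeability.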

[2] = test system: Samenleiter der Ratte; test: Contractile activity of smooth muscle: rat vas deferens; details: n = 9; for Adrenalin 1.10^-6: Dauer, Min.: Samenleiter der Ratte
Summary of the method: (§2)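 Isolated rat uterus and vas deferens; effects of compounds on smooth-muscle contractile activity and on responses to acetylcholine, serotonin, adrenaline and KCl as agonists. Contraction amplitude and duration recorded mechanically.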

[3] = Acute toxicity, single intraperitoneal injection, probit analysis (LD50); assay type: in vivo, Mäusen; details: mice, i.p.
From the text: Ihre akute Toxizität wurde an Mäusen (einmalige intraperitoneale Injektion) nach der Methode der Probit-Analyse nach Zichtfield, Wilcoxon, t949 untersucht. In Tabelle 2 sind die Parameter der akuten Toxizität (LDso) angegeben, die eine mäßige Toxizität der erfindungsgemäßen Verbindungen belegen.

[4] = test system: Nerven-Muskel-Präparat von Mäusen (n.peroneus-m.extensor digitorum longus); test: Neuromuscular transmission in isolated nerve-muscle preparation (EPP, minEPP); details: for Stimulierung der Nerven-Muskelübertragung, in % der Amplitude: EPP: EPP = Endplattenpotential
Summary of the method: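 Mouse peroneal nerve–extensor digitorum longus preparation, isolated and perfused with O2/CO2-gassed Lilly solution. EPPs and spontaneous minEPPs were recorded by magnetograph, then analysed by computer for frequency, amplitude and duration.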

[5] = test system: durch Skopolamin hervorgerufene Amnesie; test: Dark avoidance assay (passive avoidance), scopolamine-induced amnesia; assay type: in vivo, Mäusen; details: mice, compound s.c. 5 min before learning, Skopolamin i.p. 30 min before
[6] = target: T1, M2-Cholinrezeptoren (Oryctolagus cuniculus, UniProt G1TBX1); test: Radioligand displacement of 3H-Chinuklidin in heart; assay type: binding, Kaninchen; details: for inhibition at 10 µM / inhibition at 1 µM: read-out: Verdrängung des 3H-Chinuklidins im Kaninchenherzen (M2-Cholinrezeptoren)
T1 construct: im Kaninchen-herzen (M2-Cholinre-zeptoren); from tissue; host or cells: rabbit heart
T1 sequence (G1TBX1 1-520): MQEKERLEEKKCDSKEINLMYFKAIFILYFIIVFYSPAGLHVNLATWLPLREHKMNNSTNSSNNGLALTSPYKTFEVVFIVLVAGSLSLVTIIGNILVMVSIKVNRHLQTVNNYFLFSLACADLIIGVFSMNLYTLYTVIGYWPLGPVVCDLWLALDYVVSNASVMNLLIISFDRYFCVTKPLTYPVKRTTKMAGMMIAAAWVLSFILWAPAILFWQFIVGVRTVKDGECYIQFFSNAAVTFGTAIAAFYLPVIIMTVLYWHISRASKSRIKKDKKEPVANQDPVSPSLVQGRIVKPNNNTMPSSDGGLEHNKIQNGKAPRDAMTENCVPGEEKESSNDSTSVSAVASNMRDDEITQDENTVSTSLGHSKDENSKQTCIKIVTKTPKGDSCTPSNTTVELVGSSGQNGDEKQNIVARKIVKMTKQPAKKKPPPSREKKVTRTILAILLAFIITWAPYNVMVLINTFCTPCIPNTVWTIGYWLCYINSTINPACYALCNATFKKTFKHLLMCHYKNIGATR
From the text: (§3) Dies beweisen spezielle Radioligandenuntersuchungen an einzelnen erfindungsgemäßen Verbindungen (s. Tabelle 6).

[7] = test system: Na -Durchlässigkeit der Membrane des Ranvier-Schnürringes; test: Na+ permeability of the node of Ranvier membrane, voltage clamp; design: species or system Frosches; details: concentration giving 50 % block of ion permeability
Summary of the method: as §1

[8] = Side effects and CNS/behaviour: tremor (TD50), sedative and m-cholinomimetic effects; assay type: in vivo; details: for TD50: in vivo
From the text: Von Interesse ist der Einfluß der erfindungsgemäßen Verbindungen auf das ZNS und das Verhalten der Tiere.

[9] = test system: Uterus der Ratte; test: Contractile activity of smooth muscle: rat uterus; details: n = 9; for Acetylcholin 1.10^-6 (Mol): Dauer, Min.: Uterus der Ratte (as head prints); for Serotonin 1.10^-6 (Mol): Dauer, Min.: Uterus der Ratte; for activity at 100 µM / activity at 10 µM: Rattus norvegicus
Summary of the method: as §2

[10] = test system: M-cholinrezeptoren; test: Radioligand displacement of 3H-Propyl-2-aminobenzylat in brain; assay type: binding, Kaninchens
From the text: as §3

[11] = test system: α2-Adrenorezeptoren; test: Radioligand displacement of 3H-clonidine in cerebral cortex; assay type: binding, Kaninchens; details: for α2-adrenoblockierende Wirkung: in words, from radioligand studies
From the text: as §3

[12] = test system: Calciumchlorid-Arrhythmie-Modells; test: Calcium chloride arrhythmia model (250 mg/kg): ventricular fibrillation, survival; assay type: in vivo, Ratten; details: rats, calcium chloride 250 mg/kg
From the text: (§4) Die antiarrhythmische Wirkung der erfindungsgemäßen Verbindungen wurde in zwei Versuchsserien untersucht, und zwar an isolierten Präparaten des rechten Vorhofs von Kaninchen und mit Hilfe des Calciumchlorid-Arrhythmie-Modells an Ratten. In den Versuchen an den isolierten Präparaten des rechten Vorhofs wurden mit Hilfe von Mikroelektroden die Dauer des AP sowie der Refraktärzeit (R) und die maximale Hemmung (e) und der Parameter (e/R) untersucht, durch den die Anfälligkeit des Myokards gegenüber der Entstehung von Arrhythmien gekennzeichnet wird. In den Versuchen an Ratten wurden diesen Calciumchlorid in einer Dosierung von 250 mg/kg injiziert. Registriert wurden das Vorliegen von Kammerflimmern und die Lebensdauer der Tiere. Sämtliche erfindungsgemäßen Verbindungen üben eine mäßige antiarrhythmische Wirkung aus. Sie steigern die Refraktärzeit des Muskels und des AP um 35 bis 145 % und verringern gleichzeitig die Anfälligkeit des Myokards, ausgedrückt durch den Parameter e/R um 10 bis 80 % (s. Tabelle 4). In bezug auf diese Wirkung waren die Salze der bicyclischen Basen wirksamer als Amyridin. Bezüglich des Vermögens, die Tiere vor Kammerflimmern und vor dem Tod nach Verabreichung von 250 mg/kg Calciumchlorid zu schützen, waren diese Verbindungen ebenfalls am stärksten wirksam. Bei Verwendung des Calciumchlorid-Arrhythmie-Modells waren viele erfindungsgemäßen Verbindungen stärker wirksam als das klassische Antiarrhythmikum Chinidin (s. M.D. Ma s kovskij, Lekarstvennye sredstva, Bd. 1, S. 401, Moskau, Medicina, 1984).

[13] = test system: isolierten Präparaten des rechten Vorhofs von Kaninchen; test: Antiarrhythmic effect on isolated right atrium preparations (microelectrodes: AP duration, refractory period R, e/R); details: isolated right atrium of rabbit, microelectrodes
From the text: as §4

[14] = target: T2, Acetylcholinesterase menschlicher Erythrozyten (Homo sapiens, UniProt P22303); test: Acetylcholinesterase inhibition, spectrophotometric; assay type: biochemical; details: Acetylcholinesteraseinhibierung bei menschlichen Erythrozyten IK, (Mol), human erythrocyte enzyme
T2 construct: Acetylcholin-esteraseinhi-bierung bei menschlichen Erythrozyten; from tissue; host or cells: human erythrocytes
From the text: Untersucht wurden die Wirkmechanismen der erfindungsgemäßen Verbindungen: • 1. Die Wirkung auf Acetylcholinesterase menschlicher Erythrozyten auf spektrofotometrischem Wege. • 2.

[15] = test system: Orientierungsaktivität; test: Influence on orientation activity; assay type: in vivo, Mäusen; details: mice
From the text: Von Interesse ist der Einfluß der erfindungsgemäßen Verbindungen auf das ZNS und das Verhalten der Tiere. Alle Verbindungen zeigen eine Kombination von stimulierenden und sedativen Eigenschaften und bei höheren Dosen auch eine m-cholinomimetische Wirkung, wobei Tremor, Speichelfluß und Diarrhoe ausgelöst werden.

[16] = test system: Wirkung von Hexenal; test: Influence on the effect of Hexenal; assay type: in vivo, Mäusen; details: mice
[17] = test system: Zahl der Krämpfe; test: Writhing test (intraperitoneal acetic acid); assay type: in vivo, Mäusen; details: male mice
From the text: Die analgetische Wirkung der erfindungsgemäßen Verbindungen wurde an männlichen Mäusen anhand des "Krampf"-Tests (Writhing-Tests) unter intraperitonealer Injizierung von Essigsäure und des Hot-plate-Tests untersucht. Im ersten Falle wurde die analgetische Wirkung der Verbindungen anhand der prozentualen Verringerung der Zahl der Krämpfe ermittelt. Beim zweiten Test wurde die Schwelle der Schmerzempfindlichkeit (Ablecken der Pfoten) bestimmt. Die stärkste analgetische Wirkung der erfindungsgemäßen Verbindungen zeigte sich beim "Krampf"-Test. Dabei übertrafen die Salze der bicyclischen Basen Amyridin, aber nicht alle erfindungsgemäßen Verbindungen waren schwächer als Morphin (s. Tabelle 4).

[18] = mouse, in vivo, ip, read-out: LD50
[19] = Konzentration 1.10^-5 Mol, 10 µM
[20] = Konzentration 1.10^-6 Mol, 1 µM
[21] = toxic dose causing tremor in 50 % of the animals

T2 sequence (P22303 other isoform, or with tags, fused parts or gaps): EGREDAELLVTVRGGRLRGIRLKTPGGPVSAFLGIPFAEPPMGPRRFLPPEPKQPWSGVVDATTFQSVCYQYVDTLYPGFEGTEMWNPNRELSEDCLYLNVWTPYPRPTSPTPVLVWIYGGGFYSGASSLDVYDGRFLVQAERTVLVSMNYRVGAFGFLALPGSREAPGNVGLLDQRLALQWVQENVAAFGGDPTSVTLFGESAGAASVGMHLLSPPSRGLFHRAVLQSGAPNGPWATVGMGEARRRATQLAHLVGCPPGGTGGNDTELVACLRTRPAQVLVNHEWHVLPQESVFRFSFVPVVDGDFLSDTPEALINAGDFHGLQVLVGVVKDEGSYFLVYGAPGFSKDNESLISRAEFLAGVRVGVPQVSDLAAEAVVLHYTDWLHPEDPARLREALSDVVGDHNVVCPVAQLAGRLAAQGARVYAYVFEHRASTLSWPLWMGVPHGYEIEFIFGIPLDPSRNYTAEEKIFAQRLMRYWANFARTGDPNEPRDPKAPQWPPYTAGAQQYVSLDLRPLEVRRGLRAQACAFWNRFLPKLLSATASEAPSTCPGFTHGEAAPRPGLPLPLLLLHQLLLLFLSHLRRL

| SMILES | Adrenalin 1.10^-6: Dauer, Min. ([2]; Konzentration 1.10^-4 Mol) [Min.] | Adrenalin 1.10^-6: Dauer, Min. ([2]; Konzentration 1.10^-5 Mol) [Min.] | LD50 [3, 18] [mg/kg] | Stimulierung der Nerven-Muskelübertragung, in % der Amplitude: EPP [4] [%] | Stimulierung der Nerven-Muskelübertragung, in % der Amplitude: minEPP [4] [%] | Einfluß auf das Gedächtnis: Zahl der Tiere in %, bei denen die Skopolaminwirkung aufgehoben wurde [5] [%] | TD50 [8, 21] [mg/kg] | Serotonin 1.10^-6 (Mol): Dauer, Min. ([9]; Konzentration 1.10^-5 Mol) [Min.] | Verdrängung des 3H-Propyl-2-aminobenzylats im Gehirn des Kaninchens (M-cholinrezeptoren) [10, 19] | Verdrängung des 3H-Propyl-2-aminobenzylats im Gehirn des Kaninchens (M-cholinrezeptoren) [10, 20] | Verdrängung des 3H-Clonidins in der Hirnrinde des Kaninchens (α2-Adrenorezeptoren) [11, 19] | Verdrängung des 3H-Clonidins in der Hirnrinde des Kaninchens (α2-Adrenorezeptoren) [11, 20] | α2-adrenoblockierende Wirkung [11] | inhibition at 10 µM ([6]; Konzentration 1.10^-5 Mol) [%] | inhibition at 1 µM ([6]; Konzentration 1.10^-6 Mol) [%] | also measured |
| --- | --- | --- | --- | --- | --- | --- | --- | --- | --- | --- | --- | --- | --- | --- | --- | --- |
| Nc1c2c(nc3c1CCC3)CCCC2 [Verbindung 40, 9-Amino-2,3,5,6,7,8-hexahydro-1 H-cyclopenta(b)chinolinhydrochloridhydrat, reference compound] | 28±0.8 | 25±0.6 | 44 | 55 | 100 | 60 | 23.2 | 25±0.4 | 10 | 0 | 10 | 0 | fehlt jedoch praktisch |  |  | IC50 ([1]; node of Ranvier, frog sciatic nerve fibres, voltage clamp, read-out: Blockierung der K^+-Durchlässigkeit der Membrane Ic50 (Mol)): 450 µM; Verdrängung des 3H-Chinuklidins im Kaninchenherzen (M2-Cholinrezeptoren) [6, 19]: 0; Verdrängung des 3H-Chinuklidins im Kaninchenherzen (M2-Cholinrezeptoren) [6, 20]: 0; IC50 ([7]; node of Ranvier, frog sciatic nerve fibres, voltage clamp, read-out: Blockierung der Na^+-Durchlässigkeit der Membrane Ic50 (Mol)): 200 µM; Acetylcholin 1.10^-6 (Mol): Dauer, Min. ([9]; Konzentration 1.10^-4 Mol): 30±0.9 Min.; Acetylcholin 1.10^-6 (Mol): Dauer, Min. ([9]; Konzentration 1.10^-5 Mol): 30±0.5 Min.; Serotonin 1.10^-6 (Mol): Dauer, Min. ([9]; Konzentration 1.10^-4 Mol): 30±0.5 Min. |
| Nc1c2c(nc3ccccc13)CCCC2 [Verbindung 41, 2,3,4,5-Tetrahydro-9-amino-acridin, reference compound] | 2±0.2 | 2±0.06 | 30 | 22 | 40 |  | 10 | 5±0.5 | 0 | 0 | 27 | 0 | in demselben Maße | 50 | 10 | IC50 ([1]; read-out: Blockierung der K^+-Durchlässigkeit der Membrane Ic50 (Mol), node of Ranvier, frog sciatic nerve fibres, voltage clamp): 800 µM; activity at 100 µM ([2]; Rattus norvegicus, read-out: Adrenalin 1.10^-6: Amplitude, % bezogen auf d.Kontrolle, Samenleiter der Ratte, Konzentration 1.10^-4 Mol): 35%; activity at 10 µM ([2]; Rattus norvegicus, read-out: Adrenalin 1.10^-6: Amplitude, % bezogen auf d.Kontrolle, Samenleiter der Ratte, Konzentration 1.10^-5 Mol): 120%; IC50 ([7]; read-out: Blockierung der Na^+-Durchlässigkeit der Membrane Ic50 (Mol), node of Ranvier, frog sciatic nerve fibres, voltage clamp): 15 µM; activity at 100 µM ([9]; read-out: Acetylcholin 1.10^-6 (Mol): Amplidude, % bezogen auf d. Kontrolle, Uterus der Ratte (as head prints), Konzentration 1.10^-4 Mol, ditto mark -"- repeats unverändert): 26%; activity at 10 µM ([9]; read-out: Acetylcholin 1.10^-6 (Mol): Amplidude, % bezogen auf d. Kontrolle, Uterus der Ratte (as head prints), Konzentration 1.10^-5 Mol, ditto mark -"- repeats unverändert): 100%; activity at 100 µM ([9]; read-out: Serotonin 1.10^-6 (Mol): Amplitude, % bezogen auf die Kontrolle, Uterus der Ratte, Konzentration 1.10^-4 Mol): 0%; activity at 10 µM ([9]; read-out: Serotonin 1.10^-6 (Mol): Amplitude, % bezogen auf die Kontrolle, Uterus der Ratte, Konzentration 1.10^-5 Mol): 164% |
| Cc1nc2c(c(N)c1C)CCC2 [Verbindung 1, 4-Amino-2,3-dimethyl-6,7-dihydro-5H-1-pyrindinhydrochlorid] |  |  |  | 50 | 90 | 70 |  |  | 28 | 0 | 26 | 0 | α2-adrenoblockierende Wirkung zeigt | 0 | 0 | Antiarrhythmische Wirkung: Verlängerung d. Lebensdauer von Ratten an Hand des CaCl2-Arrhythmie-Modells, in % [12]: 150%; Antiarrhythmische Wirkung: Verlängerung d. Refraktärzeit (R), in % [13]: 120%; LD50 [3]: 15 mg/kg; Ki [14]: 1.07 µM; Änderung der Orientierungsaktivität, in % [15]: -25%; Änderung der Dauer der Seitenlage, in %: Hexenal 60 mg/kg [16]: +28%; Verhältnis TD50 zu ED50 ([8]; ED50 = dose blocking the effect of Skopolamin in 50 % of the animals (passive avoidance, mice)): 15; TD50 (Tremor) [8, 21]: 6 mg/kg; Analgetische Wirkung: Abnahme d. Zahl der "Krämpfe" bei Mäusen, in % [17]: 60% |
